From patent publication US9120793B2, “Triazolo-pyridine compound” (Eli Lilly and Company, priority 2013, dated 2015)

Experiments:
Format in all cases: cell-based
PPARα = target: T1, PPARα (Homo sapiens, UniProt Q07869); experiment: PPARα reporter (CTF)/functional assay in CV1 cells; settings: examined up to 10 μM; efficacy <20% considered negative
T1 construct: expressed in transfected cells; host or cells: CV1 (African green monkey kidney)
T1 sequence (Q07869 239-466 limits assumed): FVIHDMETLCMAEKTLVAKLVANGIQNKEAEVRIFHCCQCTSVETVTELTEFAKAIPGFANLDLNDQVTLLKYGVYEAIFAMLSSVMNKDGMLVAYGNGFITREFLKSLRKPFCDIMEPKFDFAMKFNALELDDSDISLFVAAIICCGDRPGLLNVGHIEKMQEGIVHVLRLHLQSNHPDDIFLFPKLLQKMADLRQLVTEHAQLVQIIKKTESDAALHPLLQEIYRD
Source text: (§1) Because GPR-40 is known to be activated by ligands to PPARγ, exemplified compounds are examined in PPARα, PPARδ, and PPARγ reporter assays to determine the selectivity of an exemplified compound. CV1 cells, which are derived from the renal tissue of an African green monkey, are transfected with various receptor and reporter plasmids using Fugene. For the PPARα and PPARδ assays, a reporter plasmid containing five tandem copies of the yeast transcription protein Gal4 response element, cloned upstream of a firefly luciferase gene driven by the major late promoter of adenovirus, is transfected together with a Simian Virus 40 (SV40) driven plasmid constitutively expressing a hybrid protein containing the Gal4 DNA binding domain (DBD), and either the PPARα or PPARδ ligand binding domain. For the PPARγ assay, plasmids encoding PPARγ and RXRα, both driven by a cytomegalovirus (CMV) promoter are transfected together with a plasmid containing luciferase reporter cDNA driven by the TK promoter and a receptor response element (2×PPRE). […] After 24 hours incubation with compound, cells are lysed and luciferase activity is determined as a measure of receptor activation by luminescence. […] The maximum percent stimulation is determined versus maximum stimulation obtained with 10 μM of an appropriate PPAR agonist reference compound. […]

PPARδ = target: T2, PPARδ (Homo sapiens, UniProt Q03181); experiment: PPARδ reporter (CTF)/functional assay in CV1 cells; settings: examined up to 10 μM; efficacy <20% considered negative
T2 construct: expressed in transfected cells; host or cells: CV1 (African green monkey kidney)
T2 sequence (Q03181 211-439 limits assumed): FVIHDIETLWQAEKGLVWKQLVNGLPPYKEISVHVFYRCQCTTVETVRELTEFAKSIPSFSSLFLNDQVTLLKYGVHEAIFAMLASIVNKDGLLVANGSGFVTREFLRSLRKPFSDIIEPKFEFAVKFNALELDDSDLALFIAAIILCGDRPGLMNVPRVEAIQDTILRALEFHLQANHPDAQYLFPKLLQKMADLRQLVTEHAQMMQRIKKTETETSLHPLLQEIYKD
Source text: as §1

mGPR-40 (mFFAR1) = target: T3, mGPR-40 (mFFAR1) (Mus musculus, UniProt Q76JU9); experiment: Mouse beta-arrestin agonist assay with 1% FBS
T3 construct: host or cells: U2OS
T3 sequence (Q76JU9 whole entry): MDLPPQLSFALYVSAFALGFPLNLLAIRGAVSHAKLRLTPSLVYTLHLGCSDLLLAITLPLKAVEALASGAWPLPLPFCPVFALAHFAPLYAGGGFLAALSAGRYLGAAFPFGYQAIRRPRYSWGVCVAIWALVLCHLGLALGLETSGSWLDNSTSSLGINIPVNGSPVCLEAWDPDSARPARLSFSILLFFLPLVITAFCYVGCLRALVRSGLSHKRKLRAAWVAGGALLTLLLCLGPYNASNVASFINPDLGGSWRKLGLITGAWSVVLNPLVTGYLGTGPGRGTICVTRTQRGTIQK
T3 sequence (P32121 whole entry partner): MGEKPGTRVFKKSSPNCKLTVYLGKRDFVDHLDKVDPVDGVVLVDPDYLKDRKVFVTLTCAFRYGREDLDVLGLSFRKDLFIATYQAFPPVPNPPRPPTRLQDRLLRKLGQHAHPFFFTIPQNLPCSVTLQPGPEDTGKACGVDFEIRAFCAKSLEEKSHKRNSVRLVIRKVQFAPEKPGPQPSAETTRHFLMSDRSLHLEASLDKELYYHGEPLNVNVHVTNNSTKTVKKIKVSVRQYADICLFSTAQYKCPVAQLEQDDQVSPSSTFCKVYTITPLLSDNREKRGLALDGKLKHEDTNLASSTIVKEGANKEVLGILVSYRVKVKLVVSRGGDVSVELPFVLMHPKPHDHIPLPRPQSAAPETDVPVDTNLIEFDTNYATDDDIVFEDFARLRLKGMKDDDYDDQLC
Source text: Human embryonic kidney (hEK293)-hFFAR1 cells are purchased from DiscoveRx™. Human osteosarcoma (U2OS) cells expressing mFFAR1 are developed by DiscoveRX™. These cells co-express the Prolink™ (PK)-tagged GPR-40 and the Enzyme Acceptor™ (EA)-tagged beta-arrestin fusion proteins. If activation of the GPR-40 stimulates beta-arrestin recruitment, it would force complementation of the beta galactosidase (B-gal) enzyme fragments, forming a B-gal enzyme that generates a chemiluminescent signal using the DiscoveRx PathHunter™ detection kit. Cells are incubated overnight at 5,000 cells/well in 384 well plates in culture media containing 1% FBS (fetal bovine serum). Serial diluted compound in DMSO (2× dilutions to generate 20 concentrations) are step down diluted in culture media containing 1% FBS (fetal bovine serum) and added to cells with a final top concentration starting of 100 μM. After addition of compound, cells are incubated for 90 min at 37° C. in 5% CO2 incubator, and DiscoveRX™ kit detection reagents are added. Measurement of the chemiluminescent signal is ascertained with the Envision™ reader, after a 1-hour incubation at room temperature. Data are fit to a 4 parameter-fit logistics to determine EC50 values, % activity is measured versus maximum response to an internal standard GPR-40 agonist at 1 μM.

human GPR-40 = target: T4, human GPR-40 (Homo sapiens, UniProt O14842); experiment: Calcium Flux Primary Assay
T4 construct: expressed in transfected cells; host or cells: HEK293
T4 sequence (O14842 whole entry): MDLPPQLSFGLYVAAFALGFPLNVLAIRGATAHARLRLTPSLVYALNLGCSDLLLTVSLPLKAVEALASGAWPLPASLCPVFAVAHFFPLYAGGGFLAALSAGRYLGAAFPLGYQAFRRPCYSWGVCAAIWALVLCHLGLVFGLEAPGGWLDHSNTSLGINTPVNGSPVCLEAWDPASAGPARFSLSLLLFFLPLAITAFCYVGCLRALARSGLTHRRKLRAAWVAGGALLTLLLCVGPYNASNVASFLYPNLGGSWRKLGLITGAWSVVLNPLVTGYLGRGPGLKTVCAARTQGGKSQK
Procedure: HEK293 cells over expressing the human GPR-40 cDNA maintained in Dulbecco's modified Eagle's medium with F12 medium in 3:1 ratio supplemented with 10% FBS and 800 μg/ml geneticin at 37° C. and 5% CO2 are employed for the study. Agonist assays are performed using a Calcium 4 Dye assay kit (Molecular Devices) in the presence or absence of 0.1% fatty acid free BSA in the assay buffer (1×HBSS (Hank's Balanced Salt Solution) & 20 mM HEPES (4-(2-hydroxyethyl)-1-piperazineethanesulfonic acid). Receptor activation is measured as an increase in intracellular calcium using the Fluorometric Imaging Plate Reader (FLIPR). Maximum change in fluorescence over the base line is used to determine the agonist response. The EC50 value of the compound is calculated using Excel Fit software (version 4; IDBS) by plotting concentration vs relative fluorescence units (RFUs). […] (Mean±SEM; SEM=standard error of the mean.)

functional activation of PPARα (PPARα): No functional activation
functional activation of PPARδ (PPARδ): No functional activation
EC50 (mGPR-40 (mFFAR1); U2OS cells expressing mFFAR1, 1% FBS, 90 min, read-out: mGPR-40 b-arrestin EC50): 0.00363 µM
mGPR-40 b-arrestin % stimulation max (FA) (mGPR-40 (mFFAR1); versus internal standard GPR-40 agonist at 1 μM): 153%
EC50 (human GPR-40; HEK293 cells over expressing human GPR-40, intracellular calcium, FLIPR): 0.119 µM
efficacy (human GPR-40; maximal response compared to natural ligand linoleic acid): 76%
SMILES: CC#C[C@@H](CC(=O)O)c1ccc(OCc2ccc3nc(-c4c(C)cccc4C)nn3c2)cc1 [Example 1, (3S)-3-[4-[[2-(2,6-Dimethylphenyl)-[1,2,4]triazolo[1,5-a]pyridin-6-yl]methoxy]phenyl]hex-4-ynoic acid]
